Ends that are not written are not given here.
Key:
[1] = CD spectra, secondary structure by BeStSel; type: physicochemical; conditions: 30 μM SDS as printed, 100 μM peptide, 25 °C
Protocol: CD spectra (Figure S1) were acquired using a JASCO J-1500 spectropolarimeter (JASCO Inc., Easton, MD, USA) in 0.1 cm pathlength cells under nitrogen at 25 °C. The spectra were recorded in the range of 190 to 250 nm at a peptide concentration of 100 μM in SDS. Secondary structure was determined using the BeStSel server. Hydropathicity, mean relative hydrophobic moment, and charge of peptides were predicted using the HeliQuest (https://heliquest.ipmc.cnrs.fr/ (accessed on 12 March 2024)). The 3D structure of SAAP-148 and its analogues (Figure S2) was predicted using PEP-FOLD4 servers (https://bioserv.rpbs.univ-paris-diderot.fr/services/PEP-FOLD4/ (accessed on 19 June 2024)).

[2] = system: Gram-positive bacteria (S. aureus, S. epidermidis); experiment: Geometric mean of MICs against Gram-positive bacteria; type: cell-based; set-up: unit not given here
Protocol: (§1) The antibacterial activities of the peptides against […] were evaluated using a modified version of the Clinical Laboratory and Standards Institute (CLSI) broth microdilution method, as previously described. Briefly, the bacteria were cultured in liquid LB medium (comprising 10 g/L tryptone, 5 g/L yeast extract, and 10 g/L NaCl) at 37 °C until reaching mid-log phase. Subsequently, the bacterial concentration was adjusted to 1 × 10^6 colony-forming units (CFU)/mL. The peptides were then diluted serially with phosphate-buffered saline (PBS), followed by the addition of 50 μL of the diluted peptides to 50 μL of the bacterial suspension in a 96-well plate (Corning Inc., Lowell, MA, USA). After incubating at 37 °C for 18 to 20 h, the absorbance of each well was measured using a multi-well microplate reader (SpectraMax M5; Molecular Devices, Sunnyvale, CA, USA) at 600 nm.

[3] = system: human erythrocytes versus five bacterial strains; experiment: Therapeutic index (MHC/GM of MIC); conditions: for Fold (TI of analogue compared with SAAP-148): TI change relative to SAAP-148; for TI (MHC/MIC): ratio of MHC to geometric mean of MIC (five strains)
Protocol: The geometric mean of minimum inhibitory concentration (MIC) values (GM) from the five strains was calculated to provide a comprehensive assessment of antimicrobial activity, as presented in Table 4.
The therapeutic index (TI) is a widely utilized parameter for indicating the specificity of antimicrobial agents, which is determined by the ratio of MHC (hemolytic activity) and MIC (antimicrobial activity). Consequently, larger TI values signify greater antimicrobial specificity. The TI can be enhanced through one of three mechanisms: increasing antimicrobial activity, reducing hemolytic activity while maintaining antimicrobial activity, or a combination of both augmenting antimicrobial activity and diminishing hemolytic activity.

[4] = system: Gram-negative bacteria (E. coli, P. aeruginosa, K. pneumoniae); experiment: Geometric mean of MICs against Gram-negative bacteria; type: cell-based; set-up: unit not given here
Protocol: as §1

[5] = system: Pseudomonas aeruginosa (1.2421); type: cell-based
Description: (§2) The LL-37, SAAP-148 and its analogues peptides were synthesized according to the standard Fmoc procedure. The Fmoc-protected resin and monomers are first treated with a basic solvent (piperidine) to remove the amino protecting groups. The carboxyl group of the next amino acid is activated by an activator. The activated monomer reacts with the free amino group to form a peptide bond. These two steps are repeated in a cycle until the synthesis is complete. After synthesis, the peptide is eluted from the column and purified by reverse-phase semipreparative high-performance liquid chromatography as detailed in Table 1. The peptides were dissolved in PBS to create a 1000 μmol/L stock solution for subsequent use. The purity of the synthetic peptide exceeded 95%. Blood samples from healthy donors were obtained from the Fifth Medical Center of Chinese PLA General Hospital (Beijing, China). Human normal lung epithelial cells (BEAS-2B) and mouse mononuclear macrophages cells (RAW 264.7) were sourced from Beyotime Biotechnology (Beijing, China), along with the Enhanced Cell Counting Kit-8 (CCK-8) and nitric oxide detection kit. RPMI-1640 and DMEM were procured from Merck (Darmstadt, Germany), while FBS was obtained from ExCell Bio (Shanghai, China). LPS-B5 (from E. coli 055:B5) was procured from Invivogen (Toulouse, France). Five bacterial strains, including Escherichia coli (1.8732), Pseudomonas aeruginosa (1.2421), Klebsiella pneumonia (1.1736) as Gram-negative bacteria, and Staphylococcus aureus (1.8721) and Staphylococcus epidermidis (1.4260) as Gram-positive bacteria, were procured from the China General Microbiological Culture Collection Centre (CGMCC) (Beijing, China).
as §1

[6] = system: Escherichia coli (1.8732); type: cell-based
Description: as §2, §1

[7] = system: Staphylococcus aureus (1.8721); type: cell-based
Description: as §2, §1

[8] = system: Staphylococcus epidermidis (1.4260); type: cell-based
Description: as §2, §1

[9] = system: Klebsiella pneumonia (1.1736); type: cell-based, Klebsiella pneumoniae
Description: as §2, §1

five bacterial strains = experiment: MICs against all five bacterial strains (geometric mean, range); type: cell-based; set-up: unit not given here; conditions: geometric mean of MICs against all five bacterial strains
Protocol: as §1

[10] = Reversed-phase HPLC retention time as measure of peptide hydrophobicity; type: physicochemical; conditions: retention time by reverse-phase HPLC, reflects hydrophobicity difference between analogues
Description: The physicochemical parameters crucial for the antimicrobial activity of AMPs have been identified, encompassing net charge, helicity, hydrophobicity, and amphipathicity. The hydropathicity, mean relative hydrophobic moment, and charge of peptides were predicted using the HeliQuest (https://heliquest.ipmc.cnrs.fr/ (accessed on 12 March 2024)). Lysine is a hydrophilic amino acid, and its substitution leads to a decrease in the hydrophobicity of the SAAP-148 analogue. The anticipated results are consistent, with the degree of reduction in […] varying depending on the position at which lysine is substituted (Table 2). The amphipathicity of the peptides, as denoted by the μH (mean relative hydrophobic moment), is elaborated on in Table 2. The hydrophobic moment of SAAP-148 analogues was decreased except for SAAP-10, which is on account of the substitution occurring on the18th residue. (Figure 1) The 18th residue of SAAP-148 is glutamine, a polar amino acid residue, located at the junction of the hydrophobic and hydrophilic surfaces of the SAAP-148 α-helix. […] The retention time data determined by reversed-phase high-performance liquid chromatography (RP-HPLC) reflects the hydrophobicity difference between peptide analogues. It is well documented that the formation of a hydrophobic-binding domain due to peptide secondary structure can affect peptide interactions with reversed-phase matrices. This effect was observed particularly for amphipathic α-helical peptides. Given this preferred binding domain, amphipathic α-helical peptides are considerably more retentive than non-amphipathic peptides with the same amino acid composition.
This phenomenon was particularly evident in the case of amphipathic α-helical peptides. […] This discrepancy may be attributed to the lack of a well-defined α-helical structure in SAAP-148 and its analogues (Figure S1).

human erythrocytes = experiment: Haemolytic activity; type: cell-based
Protocol: The haemolytic activity of the peptides was evaluated using a standard procedure with minor adjustments. Fresh human erythrocytes were washed thrice and subsequently resuspended at 1.25% haematocrit in PBS. Forty microlitres PBS-diluted peptide solution was added to a 96-well plate (Corning Inc., Lowell, MA, USA), and 160 μL of erythrocytes was added. After incubation at 37 °C for 30 min, the samples were centrifuged, and the absorbance of the supernatant was measured at 450 nm using a multi-well microplate reader (SpectraMax M5; Molecular Devices, Sunnyvale, CA, USA) and compared with the 100% haemolysis caused by 0.1% Triton X-100. The percentage of haemolysis was calculated according to the equation: Haemolysis%=Asample−Ablank/Atriton−Ablank×100

| Substance | Others [1] | Turn [1] | α-Helix [1] | β-Antiparallel [1] | β-Parallel [1] | GM to G+ [2] | Fold (TI of analogue compared with SAAP-148) [3] | TI (MHC/MIC) [3] | GM to G− [4] | MIC P. aeruginosa [5] | MIC E. coli [6] | MIC S. aureus [7] | MIC S. epidermidis [8] | MIC K. pneumoniae [9] | MIC (GM) (five bacterial strains) | Rt [10] | haemolytic activity compared with SAAP-148 (human erythrocytes) |
| --- | --- | --- | --- | --- | --- | --- | --- | --- | --- | --- | --- | --- | --- | --- | --- | --- | --- |
| KKRVWKRVFKLLKRYWRQLKKPVR-NH2 [SAAP-1] | 0% | 0% | 93.5% | 6.5% | 0% | 12.51 | 1.1 | 0.12 | 3.94 | 3.13 µM | 3.13 µM | 50.00 µM | 3.13 µM | 6.25 µM | 6.25 | 11.419 min | comparable hemolytic activity to SAAP-148 |
| LKRVKKRVFKLLKRYWRQLKKPVR-NH2 [SAAP-3] | 0% | 0% | 100% | 0% | 0% | 17.69 | 72.73 | 8.00 | 3.12 | 3.13 µM | 1.56 µM | 100.00 µM | 3.13 µM | 6.25 µM | 6.25 | 11.208 min | – |
| LKRVWKRVFKKLKRYWRQLKKPVR-NH2 [SAAP-6] | 0% | 0% | 84.4% | 15.6% | 0% | 6.24 | 15.82 | 1.74 | 2.48 | 1.56 µM | 1.56 µM | 25.00 µM | 1.56 µM | 6.25 µM | 3.59 | 9.213 min | – |
| LKRVWKRVFKLLKRKWRQLKKPVR-NH2 [SAAP-8] | 0% | 0% | 100% | 0% | 0% | 6.24 | 6 | 0.66 | 3.93 | 1.56 µM | 1.56 µM | 25.00 µM | 1.56 µM | 25.00 µM | 4.74 | 13.475 min | – |
| LKRVWKRVFKLLKRYKRQLKKPVR-NH2 [SAAP-9] | 0% | 0% | 100% | 0% | 0% | 12.51 | 9.09 | 1.00 | 3.94 | 1.56 µM | 3.13 µM | 50.00 µM | 3.13 µM | 12.50 µM | 6.25 | 11.941 min | – |
| LKRVWKRVFKLLKRYWRQKKKPVR-NH2 [SAAP-11] | 0% | 0% | 100% | 0% | 0% | 12.51 | 0.45 | 0.05 | 15.75 | 6.25 µM | 6.25 µM | 50.00 µM | 3.13 µM | 100.00 µM | 14.36 | 15.926 min | – |
| LKRVWKRVFKLLKRYWRQLKKPKR-NH2 [SAAP-13] | 1.2% | 0% | 98.8% | 0% | 0% | 17.68 | 0.45 | 0.05 | 12.5 | 12.50 µM | 6.25 µM | 50.00 µM | 6.25 µM | 25.00 µM | 14.36 | 16.867 min | – |
| LKRVWKRVKKLLKRYWRQLKKPVR-NH2 [SAAP-5] | 0% | 0% | 100% | 0% | 0% | 8.85 | 10.45 | 1.15 | 3.94 | 6.25 µM | 1.56 µM | 25.00 µM | 3.13 µM | 6.25 µM | 5.44 | 10.681 min | – |
